Assay results published in US5082857A, “Chemical compound” (Kyowa Hakko Kogyo Kabushiki Kaisha, priority 1989, dated 1992).
≈ marks a conversion by molar mass, not a printed value.

Legend:
[1] = tested on: Sarcoma 180 tumour cells; assay: Curing effect on Sarcoma 180 tumour cells; type: in vivo, female mice of ddy strain; conditions: i.v., 5 times at 24 h intervals, 10 days after inoculation
Method: As test animals, female mice of ddy strain (body weight about 20 g; each group consisting of 6 mice) were used. 5×10^6 Sarcoma 180 tumour cells were, on each occasion, inoculated into the animal under the skin of the armpit. From the first to 5th days after this, a dose of phosphate-buffered physiological saline (PBS; 0.2 ml) containing a given concentration of DC114-C as shown in Table 3 was intravenously given to the test animal. The administration was effected 5 times with an interval of 24 hours between each. […] 10 days after inoculation, T/C values viz. the ratio of the average volume (mm^3) of the tumours found on the animals treated with the test compounds to the corresponding volume found on the untreated animals were measured and these are shown in the following Table 3.

[2] = tested on: Klebsiella pneumoniae ATCC 10031; assay: Anti-bacterial activity, MIC by agar dilution method; type: cell-based; conditions: ATCC10031, pH 7.0, read-out: minimum inhibitory concentration (MIC)
Description: (§1) The following Table 1 indicates minimum inhibitory concentration (MIC) of DC114-C against selected microorganisms, measured by the agar dilution method at pH 7.0.

[3] = tested on: Enterococcus faecium ATCC 10541; assay: as above; type: cell-based; conditions: ATCC10541, pH 7.0, read-out: minimum inhibitory concentration (MIC)
Description: as §1

[4] = tested on: Staphylococcus aureus ATCC 6538P; assay: as above; type: cell-based; conditions: ATCC6538P, pH 7.0, read-out: minimum inhibitory concentration (MIC)
Description: as §1

[5] = tested on: Salmonella typhi ATCC 9992; assay: as above; type: cell-based; conditions: Salmonella enterica, pH 7.0, read-out: minimum inhibitory concentration (MIC)
Description: as §1

[6] = tested on: Bacillus subtilis No. 10707; assay: as above; type: cell-based; conditions: pH 7.0, read-out: minimum inhibitory concentration (MIC)
Description: as §1

[7] = tested on: Balb 3T3/H-ras cells; assay: Growth inhibition against Balb 3T3/H-ras cells (neutral red); type: cell-based; conditions: Mus musculus, BALB/3T3, read-out: IC50 (concentration required for 50% inhibition of the growth of the cells); 72 hours, 37° C.
Method: Into each well of a 96 well microtitre plate was poured a Balb 3T3/H-ras cell suspension (each 0.1 ml), containing 2×10^4 cell/ml and prepared by suspending the cells in medium A. Medium A was prepared by adding to F10 medium (commercial product of Gibco) fetal calf serum (0.1 g/ml), penicillin (100 Unit/ml) and streptomycin (100 μg/ml).
On each occasion, the plate was incubated at a temperature of 37° C. for 20 hours in a carbon dioxide incubator. Then a test sample of DC114-C was suitably diluted with medium A. The diluted sample (0.05 ml) was added to each well, followed by incubation at a temperature of 37° C. for 72 hours in the incubator. After this, the supernatant was removed from the medium. Another medium (each 0.1 ml), prepared by adding to medium A neutral red (0.02%), was added to each well. The cells were dyed by incubation at a temperature of 37° C. for one hour in the incubator.
The supernatant was removed and the residue was washed once with physiological saline. After removal of the dyestuff by using a mixture of 0.001N hydrochloric acid and 30% ethanol, a micro-plate reader was applied to the material to measure the absorbance at 550 nm. The following Table 2 indicates the results obtained by comparing the absorbance of untreated cells with the absorbance of the test sample measured at various concentrations.

[8] = Solubility in various solvents
[9] = in vivo; conditions: mouse, iv

Cc1cc2c(O)c3c(cc2c2oc(C4(C)OC4C4CO4)cc(=O)c12)C(=O)C1OC1(C1CC(=O)C(O)C(C)O1)C3O (stereo not shown) [DC114-C]
T/C (ratio of average tumour volume, treated to untreated) ([1]; 0.78 mg/kg each): 0.56 | T/C (ratio of average tumour volume, treated to untreated) ([1]; 1.56 mg/kg each): 0.48 | T/C (ratio of average tumour volume, treated to untreated) ([1]; 3.13 mg/kg each): 0.26 | T/C (ratio of average tumour volume, treated to untreated) ([1]; 6.25 mg/kg each): 0.15 | MIC [2]: 4.2 µg/mL (≈ 7.63 µM) | MIC [3]: 0.13 µg/mL (≈ 0.236 µM) | MIC [4]: 0.07 µg/mL (≈ 0.127 µM) | MIC [5]: 8.3 µg/mL (≈ 15.1 µM) | MIC [6]: 0.26 µg/mL (≈ 0.472 µM) | IC50 [7]: 0.06 µg/mL (≈ 0.109 µM) | Solubility in chloroform, dimethylsulfoxide (DMSO), methanol, ethyl acetate and acetone ([8]; chloroform, DMSO, methanol, ethyl acetate, acetone): Readily soluble | Solubility in water and n-hexane ([8]; water, n-hexane): Hardly soluble | LD50 [9]: 17.6 mg/kg
